According to patent US20230391727A1, “ANALOGUES OF PENTAMIDINE AND METHODS FOR TREATING INFECTIONS” (Auransa Inc., priority 2020, published 2023):
Converted amounts (≈) assume the structure as drawn. Read-outs that look alike come from different tables or passages of the source.

How the values were obtained:
[1] = system: S. aureus ATCC 27660; experiment: MIC assay against gram positive S. aureus; type: cell-based; settings: Staphylococcus aureus, ATCC27660
Procedure: (§1) Then the compound stocks were serially 2-fold diluted in a v-bottom 96-well plate to make 100-fold working solutions. One day before the test, −80° C. glycerol stock of S. aureus strains were streaked on cation-adjusted Mueller-Hinton agar (CAMHA) plates. On the day of test, fresh bacterial colonies were suspended into sterile saline to an OD600 nm of ˜0.1 (equivalent to 0.5 McFarland). The bacterial suspension was firstly 20-fold followed by 50-fold diluted in cation-adjusted Mueller-Hinton broth (CAMHB) plates to 1×10^6 CFU/PO. 198 ul of the inoculum was added into the round-bottom 96-well plates prefilled with 2 ul of 100-fold compound working solutions. After incubating at 35 +/−2° C. in ambient atmosphere for 18-24 h, MIC was recorded as the lowest concentration under which no visible bacterial growth was observed.

[2] = system: S. aureus ATCC 43300; experiment: MIC assay against gram positive S. aureus; type: cell-based; settings: Staphylococcus aureus, ATCC43300
Procedure: as §1

[3] = system: Staphylococcus aureus ATCC 19636; experiment: MIC assay against gram positive and antibiotic-resistant S. aureus; type: cell-based; settings: ATCC19636; Staphylococcus aureus ATCC 19636; read-out: MIC
Procedure: (§2) The MICs of vancomycin and linezolid were determined as quality controls and the MIC values of each strain met the acceptance criteria based on PDS historical reference data.
(§3) The direct colony suspension method was used to prepare inoculated broth. Isolated colonies were taken from an 18-24 h culture plate. Optical density measurements (OD620 nm) were used to estimate the bacterial density. The test article, compound 3, and reference control stock solutions were prepared in 100% DMSO as 50× stock solutions. The 50× stock solutions were diluted by 2-fold serial titrations with 100% DMSO for a total of 11 concentrations. A 4 μL aliquot of each dilution was added to 196 μL of cation-adjusted Mueller Hinton Broth II medium seeded with the organism in wells of a 96 well plate. The final vehicle concentration was two percent (2%) in all assay wells. The final bacterial count was 2 to 8×10^5 CFU/mL. The final compound 3 concentration range was 16 to 0.016 μg/mL. Each test substance dilution was evaluated in duplicate on one test occasion. Vehicle-control and reference controls were used as blank and positive controls, respectively. Plates were incubated at 35-37° C. for 18 h. The test plates were visually examined and each well was visually scored for growth or complete inhibition of growth. The MIC value was recorded.

[4] = system: Staphylococcus aureus ATCC 33591 (MRSA); experiment: as above; type: cell-based; settings: Staphylococcus aureus ATCC 33591, MRSA; read-out: MIC
Procedure: as §2, §3

[5] = system: Staphylococcus aureus BAA-1556 (MRSA); experiment: as above; type: cell-based; settings: Staphylococcus aureus BAA-1556, MRSA; read-out: MIC
Procedure: as §2, §3

[6] = system: Staphylococcus aureus VRS-2 (VRSA); experiment: as above; type: cell-based; settings: Staphylococcus aureus VRS-2, VRSA; read-out: MIC
Procedure: as §2, §3

[7] = system: S. aureus VRS-2; experiment: S. aureus VRS-2 peritonitis infection model; type: in vivo, female ICR mice; settings: 50 mg/kg PO QD, 1 h post-infection, p<0.05
Procedure: The efficacy of compound 3 was evaluated in the S. aureus VRS-2 peritonitis infection model. The test article, compound 3 at 0.1, 0.3 and 1 mg/kg, was intraperitoneally (IP) administered twice at 2 and 16 h after infection; as well as once at 2 mg/kg at 2 h post-infection. The control reference agent, linezolid at 50 mg/kg, was orally (PO) administered once at 1 h post-infection. […] All animals in the vehicle group succumbed to infection between Day 1 to Day 2, resulting in 100% mortality, and a mean 15 h survival time. […] In the compound 3 at 1 mg/kg IP BID dose group, one out of eight animals survived till Day 7 of the study period, resulting in 13% survival rate, and a mean 33 h survival time.
For efficacy testing, the 0.4 mg/mL compound 3 solution was prepared by dissolving 1.21 mg of compound 3, corresponding to active ingredient of 1.02 mg with a correction factor of 1.19, in 2.55 mL of WFI. The 0.4 mg/mL compound 3 working solution was further diluted with WFI to generate three lower dosing solutions of 0.2, 0.06 and 0.02 mg/mL. All dosing solutions were soluble and colorless.
PDS supplied vancomycin and linezolid as reference controls for both MIC and in vivo studies. […] The 3.2 mg/mL linezolid 50× stock solution was prepared by dissolving 1.0 mg of linezolid in 0.313 mL of DMSO. Both solutions were colorless and soluble. For efficacy testing, one tablet of linezolid, at 600 mg, was dissolved in 12 mL of 1% Tween 80 in saline (0.9% NaCl) to generate a 50 mg/mL of stock solution. The 50 mg/mL linezolid stock solution was further diluted with 1% Tween 80 in 0.9% NaCl to generate the dosing solution of 5 mg/mL. Both solutions were insoluble with white color.
The S. aureus strain VRS-2 peritonitis infection model was performed with immunocompetent female ICR mice, weighing 22±2 g. All animals were specific pathogen free. The PDS standard protocol for preparing S. aureus cultures for mouse infection studies was followed. A 0.2 mL aliquot of a single-use glycerol stock (at −80° C.) was used to seed […] heart infusion (BHI) and then incubated at 35-37° C. with shaking (250 rpm) for 8 h. Bacterial cells in the 20 mL was pelleted by centrifugation (3,500×g) for 15 minutes, and then re-suspended in 10 mL cold phosphate buffer saline (PBS). The optical density, OD620 nm, was measured and used to guide dilution. The PBS suspensions were stored on ice for no more than 1 h prior to animal inoculation. The dilutions were performed by 1:1 dilution of BHI broth containing hog gastric mucin to obtain the target inoculum density, 1×10^8 CFU/mouse, per 0.5 mL with 5% mucin (final concentration). The actual colony count was determined by plating dilutions to nutrient agar (NA) plates followed by 20-24 h incubation at 35-37° C.
On Day 0, animals were infected with bacterial suspension with 5% mucin by intraperitoneal injection. The actual inoculum was 1.93×10^8 CFU/mouse with a target inoculum of 1×10^8 CFU/mouse in the peritonitis infection model. Test article, compound 3, was formulated in WFI and intraperitoneally (IP) administered with the dose schedule and concentrations indicated in the study design. Doses were administered once at 2 h post-infection or twice (BID) at 2 and 16 h post-infection. The animals were monitored for survival up to 7 days, twice daily (AM 9:00/PM 17:00). […]
Animals were monitored for mortality twice daily (AM 9:00/PM 17:00) for 7 days after infection. […]

[8] = system: Aspergillus fumigatus AF293; experiment: Anti-fungal MIC assay; type: cell-based; settings: read-out: MIC, 50% growth inhibition
Procedure: (§4) The first round of testing included Candida parapsilosis, Candida krusei, Paecilomyces variotii, Candida albicans, Aspergillus fumigatus, and Blastomyces dermatitidis. […] The second round of testing included Candida parapsilosis, Candida krusei, Candida albicans, Candida auris, Candida glabrata, Candida guilliermondii, and Cryptococcus neoformans.
(§5) Stock solutions of the investigational agent were prepared at concentrations 100-times the highest concentration to be tested (6400 μg/ml) using dimethyl sulfoxide. Aliquots of the stock solutions were dispensed into polystyrene vials and stored at −20° C.
(§6) The synthetic medium RPMI-1640 (with glutamine, without bicarbonate, and with phenol red) was used. The RPMI was buffered to a pH of 7.0+0.1 at 25° C. with 0.165M MOPS (3-[N-morpholino] propanesulfonic acid). Sterile U-shaped 96-well cell culture plates were used to perform the MIC assays. Dilutions of the DMSO stocks were prepared in RPMI to achieve 2× concentrations. After the dilutions of the working 2× investigational antifungal solutions were prepared, 0.1 ml of each concentration was transferred into a pre-specified column of the U-shaped 96-well cell culture plate using sterile pipettes.
(§7) Fungal isolates were grown on Sabouraud dextrose agar (yeasts) or potato flake agar (filamentous fungi) and cells were collected after an appropriate period of growth for each species being evaluated (e.g., 48-72 hours for yeasts and 7 days for filamentous fungi). The fungi were suspended in sterile distilled water, and the densities of the fungal suspension were read using a spectrophotometer and adjusted to an appropriate optical density specific for each fungal species. The fungal suspension of each isolate was then diluted in RPMI. A sufficient volume of the test inoculum was prepared to directly inoculate 0.1 ml into each test well of the 96-well cell culture plate. Final inoculum ranges were dependent on the fungal species to be tested (e.g., 0.4×103 to 5×10^3 cells/ml for yeasts and dimorphic fungi, and 0.4×104 to 5×10^4 cells/ml for filamentous fungi). Each well of the 96-well cell culture plate containing the investigational antifungal compounds (0.1 ml volume) was inoculated on the day of the assay with 0.1 ml of the fungal suspension. Growth control wells contained 0.1 ml of fungal suspension and 0.1 ml of the growth medium without antifungal agents. The media control well contained 0.2 ml of the growth medium.
(§8) The microdilution trays were incubated at 35° C. without agitation. […] One positive comparator/control was used for yeast (fluconazole) and one was used for filamentous fungi (voriconazole).

[9] = system: Aspergillus fumigatus AF2; experiment: Anti-fungal MIC assay; type: cell-based
Procedure: as §4, §5, §6, §7, §8

[10] = system: Aspergillus fumigatus AF3; experiment: Anti-fungal MIC assay; type: cell-based
Procedure: as §4, §5, §6, §7, §8

[11] = system: Blastomyces dermatitidis BD1; experiment: Anti-fungal MIC assay; type: cell-based
Procedure: as §4, §5, §6, §7, §8

[12] = system: Blastomyces dermatitidis BD2; experiment: Anti-fungal MIC assay; type: cell-based
Procedure: as §4, §5, §6, §7, §8

[13] = system: Blastomyces dermatitidis BD3; experiment: Anti-fungal MIC assay; type: cell-based
Procedure: as §4, §5, §6, §7, §8

[14] = system: Candida krusei ATCC6258; experiment: Anti-fungal MIC assay; type: cell-based; settings: Pichia kudriavzevii, first round (Table 5)
Procedure: as §4, §5, §6, §7, §8

[15] = system: NCI H69 cells; experiment: CellTiter-Glo cell viability assay (cytotoxicity), 8 days; type: cell-based; settings: Homo sapiens, 192 h, full growth media
Procedure: The experiment tested pentamidine, Compounds 1-6 in full growth media for 8 days. NCI H69 cells were initially treated with the test compounds on Day 0, and the cells were then replenished with fresh compound dilutions on Day 3. Pentamidine and Compound 1 were tested at 9 concentration points: 100 μM, 33.33 μM, 11.11 μM, 3.70 μM, 1.23 μM, […], 0.05 μM, and 0.02 μM (final DMSO concentration=0.5%). The raw data values from the CellTiter-Glo™ cell viability assay expressed in relative luminescence units were normalized to the vehicle for each individual plate, and any reduction in luminescence indicated a decrease in viability (%). The data was analyzed in GraphPad PRISM using a non-linear sigmoidal plot with variable slope (asymmetric four-point […]), and an IC50 value for each compound was generated based on the normalized dose-response curves and shown in Table 1.

[16] = system: A. baumannii ATCC 17978; experiment: Checkerboard assay with novobiocin (FIGS. 2, 3, 5, 6); type: cell-based, Acinetobacter baumannii
Description: Novobiocin is an anti-staphylococcal drug, but with limited use. The oral form of novobiocin drug has since been withdrawn from the market due to lack of efficacy. This antibiotic is often used to treat Staphylococcus aureus infection, particularly methicillin resistant S. aureus “MRSA”.

[17] = system: K. pneumoniae ATCC 43816; experiment: Checkerboard assay with rifampicin (FIG. 4); type: cell-based, Klebsiella pneumoniae; settings: K. pneumoniae ATCC 43816, FIG. 4
[18] = read-out: MIC, 50% growth inhibition
[19] = read-out: MIC, 100% growth inhibition

For `CC(=O)NC[C@H]1CN(c2ccc(N3CCOCC3)c(F)c2)C(=O)O1` [Linezolid, reference compound], the MIC [1] was 4 µg/mL (≈ 11.9 µM), the MIC [2] was 4 µg/mL (≈ 11.9 µM) and the MIC [3] was 4 µg/mL (≈ 11.9 µM). For the same compound, the MIC [4] was 2 µg/mL (≈ 5.93 µM), the MIC [5] was 2 µg/mL (≈ 5.93 µM) and the MIC [6] was 4 µg/mL (≈ 11.9 µM). It also gave a survival rate [7] of 100% and a mean survival time ([7]; maximum set at 180 h) of 180 h.
In the case of `C[C@@H](c1ncncc1F)[C@](O)(Cn1cncn1)c1ccc(F)cc1F` [Voricolazole, voriconazole, reference compound], the MIC [8] is reported as 0.25 µg/mL (≈ 0.716 µM), the MIC [9, 18] is reported as over 16 µg/mL and the MIC [9, 19] is reported as over 16 µg/mL. It also gave an MIC [10, 18] of 2 µg/mL (≈ 5.73 µM), an MIC [10, 19] of 4 µg/mL (≈ 11.5 µM) and an MIC [11, 18] of at most 0.03 µg/mL. The MIC [11, 19] was 0.06 µg/mL (≈ 0.172 µM), the MIC [12, 18] was at most 0.03 µg/mL and the MIC [12, 19] was 0.125 µg/mL (≈ 0.358 µM). For the same compound, the MIC [13, 18] was at most 0.03 µg/mL, the MIC [13, 19] was 0.125 µg/mL (≈ 0.358 µM) and the MIC ([14]; ATCC6258, Candida krusei ATCC6258, read-out: MIC, 50% growth inhibition) was at most 0.03 µg/mL. It also gave an MIC ([14]; ATCC6258, read-out: MIC, 100% growth inhibition, Candida krusei ATCC6258) of 0.125 µg/mL (≈ 0.358 µM).
For `N=C(N)c1cccc(CCCCCCCc2cccc(C3CCNC3)c2)c1` (centres unmarked) [Compound 2, 3-(7-(3-(pyrrolidin-3-yl)phenyl)heptyl)benzimidamide], the IC50 [15] was 1.5 µM, the “synergistic effect with novobiocin” value [16] was “clear synergistic effects” and the “synergy with novobiocin as compared to pentamidine with novobiocin” value [16] was “superior synergy”. The MIC ([16]; Acinetobacter baumannii, ATCC17978, substance alone) was 138 µM and the synergy with rifampicin [17] was “increased level of synergy”.
